Counter-ions that a name gives are not always drawn. Like-named read-outs stand apart in the source and are kept apart here.
What was measured:
[1] = target: hβ2 adrenergic receptor (Homo sapiens (Human), UniProt P07550); assay: Assay for determining adrenergic receptor agonist potency (cAMP Flashplate, HEK-293 cells); assay type: cell-based; conditions: data rounded to nearest 1 nM
Procedure: The cell monolayer was lifted with 2 mM EDTA in PBS. Cells were pelleted by centrifugation at 1,000 rpm, and cell pellets were either stored frozen at −80° C. or membranes were prepared immediately for use. cAMP assays were performed in a radioimmunoassay format using the Flashplate Adenylyl Cyclase Activation Assay System with [^125I]-cAMP (NEN SMP004, PerkinElmer Life Sciences Inc., Boston, Mass.), according to the manufacturers instructions. […] Cells were rinsed with PBS and detached in dPBS (Dulbecco's Phosphate Buffered Saline, without CaCl2 and MgCl2) containing 2 mM EDTA or Trypsin-EDTA solution (0.05% trypsin/0.53 mM EDTA). After counting cells in Coulter cell counter, cells were pelleted by centrifugation at 1,000 rpm and re-suspended in stimulation buffer containing TBMX (PerkinElmer Kit) pre-warmed to room temperature to a concentration of 1.6×10^6 to 2.8×10^6 cells/mL. About 40,000 to 80,000 cells per well were used in this assay. […] Reactions were incubated for 10 min at 37° C. and stopped by adding 100 μL of cold detection buffer containing [^125I]-cAMP (NEN SMP004, PerkinElmer Life Sciences, Boston, Mass.). […] Data were analyzed by nonlinear regression analysis with the GraphPad Prism Software package (GraphPad Software, Inc., San Diego, Calif.) with the sigmoidal equation. The Cheng-Prusoff equation (Cheng Y, and Prusoff W H., Biochemical Pharmacology, 1973, 22, 23, 3099-108) was used to calculate the EC50 values.

[2] = target: hM3 muscarinic receptor (Homo sapiens (Human), UniProt P20309); assay: Radioligand binding assay for muscarinic receptors ([3H]-NMS displacement, CHO cell membranes)
Procedure: The cells were grown in a 5% CO2, 37° C. incubator and lifted with 2 mM EDTA in dPBS. Cells were collected by 5 minute centrifugation at 650×g, and cell pellets were either stored frozen at −80° C. or membranes were prepared immediately for use. For membrane preparation, cell pellets were resuspended in lysis buffer and homogenized with a Polytron PT-2100 tissue disrupter (Kinematica AG; 20 seconds×2 bursts). Crude membranes were centrifuged at 40,000×g for 15 minutes at 4° C. The membrane pellet was then resuspended with re-suspension buffer and homogenized again with the Polytron tissue disrupter. The protein concentration of the membrane suspension was determined by the method described in Lowry et al., 1951, […], 193, 265. All membranes were stored frozen in aliquots at −80° C. or used immediately. […] The membranes were briefly homogenized using a Polytron tissue disruptor (10 seconds) prior to assay plate addition. […] The test compounds were initially dissolved to a concentration of 400 μM in dilution buffer and then serially diluted 5× with dilution buffer to final concentrations ranging from 10 μM to […]. The order of addition and volumes added to the assay plates were as follows: 25 μL radioligand, 25 μL diluted test compound, and 50 μL membranes. Assay plates were incubated for 6 hours at 37° C. […] Filter plates were rinsed three times with wash buffer (10 mM HEPES) to remove unbound radioactivity. The plates were then air-dried and 50 μL Microscint-20 liquid scintillation fluid (PerkinElmer, Inc.) were added to each well. The plates were then counted in a PerkinElmer Topcount liquid scintillation counter (PerkinElmer, Inc.). Binding data were analyzed by nonlinear regression analysis with the GraphPad Prism Software package (GraphPad Software, Inc., San Diego, Calif.) using the one-site competition model. […] These summary statistics were then converted back to K; values for data reporting.

[3] = tested on: MCh-induced bronchoconstriction; assay: Einthoven assay: bronchoprotection against methacholine (MCh)-induced bronchoconstriction; assay type: in vivo, rat; conditions: inhaled or nasal; rat, 100 μg by inhalation, 24 h after administration; read-out: Broncho. at 24 h
Procedure: This assay measures the ability of a test compound to provide bronchoprotection against methacholine (MCh)-induced bronchoconstriction in a rat. Male Sprague-Dawley rats (Harlan, Indianapolis, Ind.), weighing between 200 g and 350 g, were used for all studies. Test compound or vehicle (sterile deionized water) were dosed by inhalation (1H) over a 10 min period in a pie shaped inhalation chamber (R+S Molds, San Carlos, Calif.) using 5 mL of dosing solution. […] Rats were dosed with 100 μg of test compound unless otherwise indicated. At predetermined time points, rats were anesthetized with an intraperitoneal (IP) injection of 120 mg/kg inactin (thiobutabarbital). A supplemental dose (40 mg/kg, IP) was administered if the animal responded to physical stimuli (e.g. toe pinch). The surgical site was shaved and a 1-2 cm midline incision of the ventral aspect of the neck was made. The jugular vein was isolated and cannulated with a saline-filled polyethylene catheter (PE-50) to allow IV infusion of MCh. Trachea was dissected free and cannulated with a 14G needle (#NE-014, Small Parts, Miami Lakes, Fla.). After placement of the tracheal cannula, each rat was ventilated using a respirator (Model 683, Harvard Apparatus, Inc., MA) set at a stroke volume of 1 mL/100 g body weight (but not exceeding 2.5 mL volume) and a rate of 90 strokes per minute. A T-connector was placed along the respirator expiratory tubing to allow for measurement of changes in ventilation pressure (VP) using a Biopac transducer that was connected to a Biopac […]) pre-amplifier. Body temperature was maintained at 37° C. using a heating pad. Changes in VP were recorded using the Acknowledge Data Collection Software (Santa Barbara, Calif.). Baseline values were collected for at least 2.5 min. Rats were then challenged with non-cumulative intravenous (IV) infusions of 40 and 80 μg/kg MCh. MCh was infused intravenously for 2.5 minutes from a syringe pump (sp210iw, World Precision Instruments, Inc., Sarasota, Fla.) at a rate of 2 mL/kg/min, with a 2 minute interval between the two doses of MCh. Changes in ventilation pressure (cm H2O) in treated animals are expressed as % inhibition of MCh response relative to control animals. Other bronchoconstrictors, such as histamine and acetylcholine, can be used in place of MCh in this assay. Additionally, guinea pigs can be used instead of rats. […] Inhibition greater than or equal to 30 percent at 24 h is indicative of a long duration of action.

[4] = hM3 Muscarinic Receptor Binding, data rounded to nearest 0.1 nM

hM3 muscarinic receptor, sequence (P20309 whole entry): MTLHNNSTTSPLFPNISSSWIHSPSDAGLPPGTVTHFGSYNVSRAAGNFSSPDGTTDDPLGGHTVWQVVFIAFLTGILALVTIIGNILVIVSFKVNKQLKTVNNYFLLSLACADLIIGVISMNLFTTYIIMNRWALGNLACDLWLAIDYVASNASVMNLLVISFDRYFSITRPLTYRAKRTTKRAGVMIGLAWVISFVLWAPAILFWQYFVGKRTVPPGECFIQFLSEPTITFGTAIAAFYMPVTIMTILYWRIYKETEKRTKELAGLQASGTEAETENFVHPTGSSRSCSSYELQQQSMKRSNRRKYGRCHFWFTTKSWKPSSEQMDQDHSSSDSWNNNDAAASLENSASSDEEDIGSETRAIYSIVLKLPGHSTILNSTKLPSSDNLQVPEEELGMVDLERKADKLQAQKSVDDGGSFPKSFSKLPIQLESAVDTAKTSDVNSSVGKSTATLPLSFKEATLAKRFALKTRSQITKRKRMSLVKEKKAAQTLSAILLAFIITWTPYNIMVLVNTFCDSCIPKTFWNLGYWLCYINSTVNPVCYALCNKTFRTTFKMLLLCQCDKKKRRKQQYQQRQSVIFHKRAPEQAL
hβ2 adrenergic receptor, sequence (P07550 whole entry): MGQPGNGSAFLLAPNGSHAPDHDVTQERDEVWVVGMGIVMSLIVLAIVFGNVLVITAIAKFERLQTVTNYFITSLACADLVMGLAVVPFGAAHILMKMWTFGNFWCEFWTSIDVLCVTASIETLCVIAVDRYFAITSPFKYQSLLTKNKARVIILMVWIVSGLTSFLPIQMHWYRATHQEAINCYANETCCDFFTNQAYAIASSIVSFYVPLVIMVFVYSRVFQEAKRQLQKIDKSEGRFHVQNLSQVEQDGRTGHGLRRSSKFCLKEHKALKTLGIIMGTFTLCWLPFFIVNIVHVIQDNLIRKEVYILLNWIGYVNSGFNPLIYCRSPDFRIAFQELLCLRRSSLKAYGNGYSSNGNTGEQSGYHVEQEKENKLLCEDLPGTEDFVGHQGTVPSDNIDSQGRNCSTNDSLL

COc1ccc(NC(=O)CCCN(C)C(=O)CCN2CCC(OC(=O)Nc3ccccc3-c3ccccc3)CC2)cc1CCNC[C@H](O)c1ccc(O)c2[nH]c(=O)ccc12 [Compound I-9]
EC50 [1]: 6 nM
Ki [2]: 0.1 nM

Cc1c(CNC(=O)Cc2ccc(N(C)C(=O)CCN3CCC(OC(=O)Nc4ccccc4-c4ccccc4)CC3)cc2)cccc1CC(C)NC[C@H](O)c1ccc(O)c2[nH]c(=O)ccc12 (stereo partly shown) [Compound I-71]
EC50 [1]: 1 nM
Ki [2]: 0.1 nM

CN(C(=O)CCN1CCC(OC(=O)Nc2ccccc2-c2ccccc2)CC1)c1cccc(CC(=O)Nc2cccc(CCNC[C@H](O)c3ccc(O)c4[nH]c(=O)ccc34)c2)c1 [Compound I-62]
inhibition in vivo at 0.1 mg [3]: > 30%

COc1ccc(CC(=O)Nc2cccc(N(C)C(=O)CCN3CCC(OC(=O)Nc4ccccc4-c4ccccc4)CC3)c2)cc1CC(C)NC[C@H](O)c1ccc(O)c2[nH]c(=O)ccc12 (stereo partly shown) [Compound I-54]
EC50 [1]: 2 nM
Ki [2, 4]: 0.2 nM

Cc1ccc(CNC(=O)Cc2ccc(N(C)C(=O)CCN3CCC(OC(=O)Nc4ccccc4-c4ccccc4)CC3)cc2)cc1CC(C)NC[C@H](O)c1ccc(O)c2[nH]c(=O)ccc12 (stereo partly shown) [Compound I-70]
EC50 [1]: 1 nM
Ki [2, 4]: 0.3 nM

CN(C(=O)CCN1CCC(OC(=O)Nc2ccccc2-c2ccccc2)CC1)c1cccc(CC(=O)Nc2ccc(CCNC[C@H](O)c3ccc(O)c4[nH]c(=O)ccc34)cc2)c1 [Compound I-63]
EC50 [1]: 1 nM
Ki [2]: 0.1 nM

C[C@@H](Cc1cccc(CCC(=O)NCc2ccc(N(C)C(=O)CCN3CCC(OC(=O)Nc4ccccc4-c4ccccc4)CC3)cc2)c1)NC[C@H](O)c1ccc(O)c2[nH]c(=O)ccc12 [Compound I-93]
EC50 [1]: 11 nM
Ki [2]: 0.8 nM

C[C@H](Cc1ccc(CCNC(=O)c2ccc(N(C)C(=O)CCN3CCC(OC(=O)Nc4ccccc4-c4ccccc4)CC3)cc2)cc1)NC[C@H](O)c1ccc(O)c2[nH]c(=O)ccc12 [Compound I-57]
EC50 [1]: 1 nM
Ki [2]: 0.1 nM

C[C@@H](Cc1ccc(NC(=O)c2cccc(N(C)C(=O)CCN3CCC(OC(=O)Nc4ccccc4-c4ccccc4)CC3)c2)cc1)NC[C@H](O)c1ccc(O)c2[nH]c(=O)ccc12 [Compound I-43]
inhibition in vivo at 0.1 mg [3]: > 30%

COc1ccc(CNC(=O)Cc2ccc(N(C)C(=O)CCN3CCC(OC(=O)Nc4ccccc4-c4ccccc4)CC3)cc2)cc1CC(C)NC[C@H](O)c1ccc(O)c2[nH]c(=O)ccc12 (stereo partly shown) [Compound I-72]
EC50 [1]: 4 nM
Ki [2, 4]: 0.4 nM

CC(Cc1ccc(NC(=O)c2cccc(N(C)C(=O)CCN3CCC(OC(=O)Nc4ccccc4-c4ccccc4)CC3)c2)cc1)NC[C@H](O)c1ccc(O)c2[nH]c(=O)ccc12 (stereo partly shown) [Compound I-40]
inhibition in vivo at 0.1 mg [3]: > 30%

CN(C(=O)CCN1CCC(OC(=O)Nc2ccccc2-c2ccccc2)CC1)c1ccc(CNC(=O)Cc2cccc(CCNC[C@H](O)c3ccc(O)c4[nH]c(=O)ccc34)c2)cc1 [Compound I-76]
EC50 [1]: 1 nM
Ki [2, 4]: 0.3 nM

CN(C(=O)CCN1CCC(OC(=O)Nc2ccccc2-c2ccccc2)CC1)c1ccc(CNC(=O)CCc2cccc(CNC[C@H](O)c3ccc(O)c4[nH]c(=O)ccc34)c2)cc1 [Compound I-96]
EC50 [1]: 3 nM

CC(Cc1cccc(CCNC(=O)Cc2ccc(N(C)C(=O)CCN3CCC(OC(=O)Nc4ccccc4-c4ccccc4)CC3)cc2)c1)NC[C@H](O)c1ccc(O)c2[nH]c(=O)ccc12 (stereo partly shown) [Compound I-85]
inhibition in vivo at 0.1 mg [3]: > 30%

Cc1cc(NC(=O)Cc2cccc(N(C)C(=O)CCN3CCC(OC(=O)Nc4ccccc4-c4ccccc4)CC3)c2)c(C)cc1CNC[C@H](O)c1ccc(O)c2[nH]c(=O)ccc12 [Compound I-60]
EC50 [1]: 3 nM
Ki [2]: 0.1 nM

CN(C(=O)CCN1CCC(OC(=O)Nc2ccccc2-c2ccccc2)CC1)c1ccc(CNC(=O)Cc2ccc(CNC[C@H](O)c3ccc(O)c4[nH]c(=O)ccc34)cc2)cc1 [Compound I-75]
EC50 [1]: 2 nM
Ki [2]: 0.2 nM

CC(Cc1cc(CC(=O)NCc2ccc(N(C)C(=O)CCN3CCC(OC(=O)Nc4ccccc4-c4ccccc4)CC3)cc2)ccc1F)NC[C@H](O)c1ccc(O)c2[nH]c(=O)ccc12 (stereo partly shown) [Compound I-84]
EC50 [1]: 1 nM
Ki [2, 4]: 0.1 nM

Cc1ccc(C(=O)NCc2ccc(CC(C)NC[C@H](O)c3ccc(O)c4[nH]c(=O)ccc34)cc2)cc1N(C)C(=O)CCN1CCC(OC(=O)Nc2ccccc2-c2ccccc2)CC1 (stereo partly shown) [Compound I-47]
EC50 [1]: 3 nM
Ki [2, 4]: 0.2 nM

C[C@H](Cc1ccc(CCNC(=O)Cc2ccc(N(C)C(=O)CCN3CCC(OC(=O)Nc4ccccc4-c4ccccc4)CC3)cc2)cc1)NC[C@H](O)c1ccc(O)c2[nH]c(=O)ccc12 [Compound I-90]
EC50 [1]: 1 nM
Ki [2]: 0.1 nM

CN(CCCC(=O)Nc1ccc(CNC[C@H](O)c2ccc(O)c3[nH]c(=O)ccc23)cc1)C(=O)CCN1CCC(OC(=O)Nc2ccccc2-c2ccccc2)CC1 [Compound I-1, Biphenyl-2-ylcarbamic Acid 1-(2-{[3-(4-{[(R)-2-Hydroxy-2-(8-hydroxy-2-oxo-1,2-dihydroquinolin-5-yl)ethylamino]methyl}-phenylcarbamoyl)propyl]methylcarbamoyl}ethyl)piperidin-4-yl Ester Ditrifluoroacetic Acid Salt]
EC50 [1]: 3 nM
Ki [2, 4]: 0.1 nM

C[C@@H](Cc1ccc(CCNC(=O)c2ccc(N(C)C(=O)CCN3CCC(OC(=O)Nc4ccccc4-c4ccccc4)CC3)cc2)cc1)NC[C@H](O)c1ccc(O)c2[nH]c(=O)ccc12 [Compound I-58]
EC50 [1]: 1 nM
Ki [2]: 0.2 nM

CN(C(=O)CCN1CCC(OC(=O)Nc2ccccc2-c2ccccc2)CC1)c1ccc(CNC(=O)Cc2cccc(CNC[C@H](O)c3ccc(O)c4[nH]c(=O)ccc34)c2)cc1 [Compound I-74]
EC50 [1]: 2 nM
Ki [2, 4]: 0.3 nM

CN(C(=O)CCN1CCC(OC(=O)Nc2ccccc2-c2ccccc2)CC1)c1cccc(CC(=O)Nc2ccc(CNC[C@H](O)c3ccc(O)c4[nH]c(=O)ccc34)cc2)c1 [Compound I-59]
EC50 [1]: 3 nM
Ki [2]: 0.1 nM

CN(C(=O)CCN1CCC(OC(=O)Nc2ccccc2-c2ccccc2)CC1)c1cccc(C(=O)Nc2ccc(CNC[C@H](O)c3ccc(O)c4[nH]c(=O)ccc34)cc2)c1 [Compound I-25, Ditrifluoroacetic Acid]
EC50 [1]: 1 nM
Ki [2]: 0.1 nM

Source: patent US8551978B2 (Theravance, Inc., priority 2009, dated 2013)
